The source of these data is patent US20140147431A1, “Compositions and Methods for Modulating Desnutrin-Mediated Adipocyte Lipolysis” (The Regents of the University of California, priority 2010, published 2014).

One assay relates to AMPK. The assay can be described thus: Effect of AMPK activation on lipolysis in vivo: serum FA levels after intraperitoneal AICAR. Details: species or system mice. The following applies: five hours after injection. How it is done: Fasting serum triglycerides and FAs were analyzed with Infinity Triglyceride reagent (Thermo Trace) and NEFA C kit (Wako), respectively. Serum insulin, were determined using enzyme-linked immunosorbent assay kits (Alpco).
The role of AMPK in lipolysis is controversial, with several reporting AMPK stimulates lipolysis and others showing it inhibits lipolysis, via phosphorylation of HSL at S563 (Daval et al., 2005; Koh et al., 2007; Lage et al., 2008; Yin et al., 2003). To determine the effect of AMPK specifically on desnutrin-mediated Lipolysis, oleate loaded HEK 293 cells, transfected with wild type desnutrin-HA-GFP, mutant S406A-desnutrin-HA-GFP or GFP control, were treated with the cell-permeable AMPK-activator, 5-amino-4-imidazolecarboxamide riboside (AICAR), and lipolysis was determined by measuring glycerol release. […] To test the effect of AMPK on lipolysis in vivo, AICAR was administered intraperitoneally to flox/flox and desnutrin-ASKO mice and then measured serum FA levels. […] Therefore, AMPK phosphorylates desnutrin to increase lipolysis and promote FA oxidation in adipocytes.
FIGS. 3A-N. Desnutrin ablation converts BAT to WAT, and phosphorylation of desnutrin by AMPK increases lipolysis. […] I) FA oxidation, measured by ^14CO2 production from [U^14C] palmitate, from isolated brown adipocytes (left) and white adipocytes (right) from flox/flox and desnutrin-ASKO mice (n=4). […]

Assay [1] deals with HEK 293 cells transfected with wild type desnutrin-HA-GFP. In words: Glycerol release (lipolysis) from oleate loaded HEK 293 cells transfected with wild type desnutrin-HA-GFP. The format is cell-based. As to conditions: treated with AICAR vs without. As for the experimental part:
(§1) Gonadal fat pads or BAT from overnight fasted mice were cut into 50 mg samples and incubated at 37° C. without shaking in […] of Krebs-Ringer buffer (12 mM HEPES, 121 mM NaCl, 4.9 mM KCl, 1.2 mM MgSO4 and 0.33 mM CaCl2) containing 2% fatty acid free bovine serum albumin (BSA) and 0.1% glucose with or without 10 μM isoproterenol. Fatty acid (FA) and glycerol release were measured in aliquots from incubation buffer using the NEFA C Kit (Wako) and Free Glycerol Reagent (Sigma), respectively. […] Glycerol and fatty acid were determined using the kits described above.
(§2) The role of AMPK in lipolysis is controversial, with several reporting AMPK stimulates lipolysis and others showing it inhibits lipolysis, via phosphorylation of HSL at S563 (Daval et al., 2005; Koh et al., 2007; Lage et al., 2008; Yin et al., 2003). To determine the effect of AMPK specifically on desnutrin-mediated Lipolysis, oleate loaded HEK 293 cells, transfected with wild type desnutrin-HA-GFP, mutant S406A-desnutrin-HA-GFP or GFP control, were treated with the cell-permeable AMPK-activator, 5-amino-4-imidazolecarboxamide riboside (AICAR), and lipolysis was determined by measuring glycerol release. […] To test the effect of AMPK on lipolysis in vivo, AICAR was administered intraperitoneally to flox/flox and desnutrin-ASKO mice and then measured serum FA levels. […]

In assay [2] the test system is HEK 293 cells transfected with mutant S406A-desnutrin-HA-GFP. In words: Glycerol release (lipolysis) from oleate loaded HEK 293 cells transfected with mutant S406A-desnutrin-HA-GFP. The format is cell-based. As to conditions: treated with AICAR vs without. As for the experimental part:
as §1, §2

The next assay concerns the target T1, β3 adrenergic receptors (Mus musculus, UniProt P25962).
T1 construct: endogenous in cells; host or cells: living flox/flox and desnutrin-ASKO mice (whole animal)
In words: Oxygen consumption (VO2) by indirect calorimetry after injection of β3-agonist. As to conditions: intraperitoneal injection 1 mg/kg body weight. The assay is classed as in vivo, mice. As for the experimental part:
Oxygen consumption (VO2) was measured using the Comprehensive Laboratory Animal Monitoring System (CLAMS; Columbus Instruments). Data were normalized to body weights. Body temperatures were assessed in 25 wk-old male mice using a RET-3 rectal probe for mice (Physitemp). […] was intraperitoneally injected into mice at 1 mg/kg body weight.
Oxygen consumption (VO2) was measured using the Comprehensive Laboratory Animal Monitoring System (CLAMS: Columbus Instruments). Data were normalized to body weights. Body temperatures were assessed using a RET-3 rectal probe for mice (Physitemp).
Since lipolysis and FAs are critical for thermogenesis, it was predicted that the severely blunted lipolysis in desnutrin-ASKO mice, would lead to impaired thermogenesis. Desnutrin-ASKO mice and flox/flox littermates were subjected to cold stress. […] To test this, a β3-agonist, […], was injected into desnutrin-ASKO and flox/flox mice and oxygen consumption was monitored.
FIGS. 2A-G. Decreased lipolysis in desnutrin-ASKO mice results in impaired thermogenesis and energy expenditure. […] F) Oxygen consumption rate (VO2) measured through indirect calorimetry. G) Oxygen consumption rate (VO2) measured through indirect calorimetry after intraperitoneal injection of CL316243. […]

Assay [3] addresses wild type desnutrin-HA-GFP (murine) (UniProt Q8BJ56). The assay can be described thus: cell-based or functional assay.

T1 sequence (P25962 whole entry): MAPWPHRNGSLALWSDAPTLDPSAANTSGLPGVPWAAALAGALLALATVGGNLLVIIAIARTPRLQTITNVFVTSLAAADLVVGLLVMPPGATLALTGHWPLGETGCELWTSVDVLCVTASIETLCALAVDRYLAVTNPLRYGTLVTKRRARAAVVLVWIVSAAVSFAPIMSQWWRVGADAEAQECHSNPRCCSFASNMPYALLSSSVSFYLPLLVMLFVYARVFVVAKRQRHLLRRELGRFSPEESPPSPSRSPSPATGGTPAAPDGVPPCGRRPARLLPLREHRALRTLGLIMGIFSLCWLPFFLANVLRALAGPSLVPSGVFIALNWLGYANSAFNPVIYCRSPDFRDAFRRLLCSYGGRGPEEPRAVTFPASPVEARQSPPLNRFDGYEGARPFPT
Sequence of wild type desnutrin-HA-GFP (murine) (Q8BJ56 whole entry): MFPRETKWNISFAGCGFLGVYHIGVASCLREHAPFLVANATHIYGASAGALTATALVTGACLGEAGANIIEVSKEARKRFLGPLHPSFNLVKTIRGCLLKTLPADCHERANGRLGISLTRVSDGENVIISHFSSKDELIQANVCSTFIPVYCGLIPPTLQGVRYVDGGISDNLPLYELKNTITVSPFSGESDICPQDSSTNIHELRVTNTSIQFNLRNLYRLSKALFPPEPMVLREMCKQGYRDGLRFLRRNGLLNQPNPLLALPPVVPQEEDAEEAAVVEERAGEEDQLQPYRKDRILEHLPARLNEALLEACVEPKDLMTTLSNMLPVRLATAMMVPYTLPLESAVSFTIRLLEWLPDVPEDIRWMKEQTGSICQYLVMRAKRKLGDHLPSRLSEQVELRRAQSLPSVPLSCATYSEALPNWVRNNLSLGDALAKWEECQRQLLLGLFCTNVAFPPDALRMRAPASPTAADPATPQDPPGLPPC

In the case of `NC(=O)c1ncn([C@@H]2O[C@H](CO)[C@@H](O)[C@H]2O)c1N` [AICAR, 5-amino-4-imidazolecarboxamide riboside], the results for the “serum FA levels” value in the assay on AMPK (desnutrin-ASKO mice) and with AMPK (flox/flox mice) were “serum FA levels were unchanged” and “increased serum FA levels”, respectively. Moreover, the figures for the “increase in glycerol release” value in assay [1] and in assay [2] were 1.8 fold and “failed to do so”, respectively.

Regarding `C[C@H](Cc1ccc2c(c1)OC(C(=O)O)(C(=O)O)O2)NC[C@H](O)c1cccc(Cl)c1` [CL31624], at β3 adrenergic receptors (desnutrin-ASKO mice), the oxygen consumption result is “no change in oxygen consumption”. For the same compound, the “metabolic rate as indicated by oxygen consumption” value on β3 adrenergic receptors (flox/flox mice) was “drastic increase in their metabolic rate”.

In assay [3], “AMPK of HEK 293 cells, activated by AICAR” showed a glycerol release from oleate loaded HEK 293 cells treated with AICAR of 1.8 fold.
